Measured values taken from article PMC3246188, “Inhibition of endothelial- and neuronal-type, but not inducible-type, nitric oxide synthase by the oxidized cholesterol metabolite secosterol aldehyde: Implications for vascular and neurodegenerative diseases” (Journal of Clinical Biochemistry and Nutrition, 2011).
Where two headings read alike, the source gives them in different places.

Key:
eNOS = target: T1, eNOS (Bos taurus, UniProt P29473); test: NOS activity assay, conversion of L-[14C(U)]-arginine to L-[14C(U)]-citrulline, recombinant eNOS; format: biochemical, bovine; conditions: for Effect on eNOS activity: up to the highest concentration (100 µM)
T1 construct: purchased Sigma Chem. (St. Louis, MO)
T1 sequence (P29473 2-1205 limits assumed): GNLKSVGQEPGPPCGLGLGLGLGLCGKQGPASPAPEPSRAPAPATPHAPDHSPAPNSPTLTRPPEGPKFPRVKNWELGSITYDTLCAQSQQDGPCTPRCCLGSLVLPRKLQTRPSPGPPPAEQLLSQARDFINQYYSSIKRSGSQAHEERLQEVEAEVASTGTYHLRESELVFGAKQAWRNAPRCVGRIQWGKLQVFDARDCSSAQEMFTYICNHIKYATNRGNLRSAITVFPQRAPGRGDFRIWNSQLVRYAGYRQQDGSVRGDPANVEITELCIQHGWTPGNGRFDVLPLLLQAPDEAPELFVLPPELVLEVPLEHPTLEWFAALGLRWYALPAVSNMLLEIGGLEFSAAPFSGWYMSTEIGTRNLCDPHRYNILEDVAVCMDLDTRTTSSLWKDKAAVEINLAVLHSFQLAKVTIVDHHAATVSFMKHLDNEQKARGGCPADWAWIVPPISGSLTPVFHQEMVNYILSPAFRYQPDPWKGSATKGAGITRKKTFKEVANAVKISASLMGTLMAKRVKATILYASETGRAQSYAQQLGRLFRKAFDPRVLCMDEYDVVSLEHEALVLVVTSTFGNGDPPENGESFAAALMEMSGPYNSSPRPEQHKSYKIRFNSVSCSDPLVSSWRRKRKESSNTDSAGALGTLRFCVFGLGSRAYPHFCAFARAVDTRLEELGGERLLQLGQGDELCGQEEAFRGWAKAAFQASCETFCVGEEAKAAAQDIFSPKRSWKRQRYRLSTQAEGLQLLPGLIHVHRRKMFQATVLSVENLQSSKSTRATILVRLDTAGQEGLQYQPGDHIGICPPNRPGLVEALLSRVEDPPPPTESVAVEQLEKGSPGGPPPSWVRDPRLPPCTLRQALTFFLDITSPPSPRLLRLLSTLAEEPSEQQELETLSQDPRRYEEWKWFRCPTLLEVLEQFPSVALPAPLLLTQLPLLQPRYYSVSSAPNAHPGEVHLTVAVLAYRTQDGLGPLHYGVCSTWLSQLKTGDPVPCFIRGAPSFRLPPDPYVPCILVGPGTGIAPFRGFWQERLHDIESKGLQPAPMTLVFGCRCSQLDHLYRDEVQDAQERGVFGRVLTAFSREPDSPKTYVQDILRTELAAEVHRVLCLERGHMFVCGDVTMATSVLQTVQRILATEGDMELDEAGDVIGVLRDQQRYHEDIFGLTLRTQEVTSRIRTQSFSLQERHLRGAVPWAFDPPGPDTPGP
Description: (§1) Secosterol-A and -B were synthesized according to Wentworth et al.([1]) L-Arginine, nicotinamide adenine dinucleotide phosphate reduced form (NADPH), flavin adenine dinucleotide (FAD), flavin mononucleotide (FMN), (6R)-5,6,7,8-tetrahydrobiopterin (BH4), recombinant eNOS (from bovine), iNOS (from mouse macrophages), and Dowex® AG50W-X8 cation-exchange resin (mesh size, 100–200) were all purchased from Sigma Chem. (St. Louis, MO). Ultima Gold XR scintillation liquid was from PerkinElmer (Shelton, CA). Recombinant nNOS (from rat) was obtained from Cayman Chem. All other chemicals were obtained from Wako Pure Chem. Ind., Osaka, Japan.
(§2) The NOS activities were determined by monitoring the conversion of L-[^14C(U)]-arginine (Moravek, Brea, CA) to L-[^14C(U)]-citrulline as previously described.([28]) Recombinant enzymes of three isoforms of NOS (specific activity: eNOS 0.03, nNOS 2.9, iNOS 0.62 units/mg protein) (10 µl) were added to a reaction mixture (final volume of 100 µl) consisting of 50 mM HEPES buffer (pH 7.4), 1 mM NADPH, 4 µM FAD, 4 µM FMN, 10 µM BH4, 1 mg/L (60 µM) calmodulin (CaM), 2.5 mM CaCl2, 50 µM L-arginine, 0.5 µCi/ml of L-[^14C(U)]-arginine (specific activity: 8.14–11.1 GBq/mmol) and varying concentrations of the test compound. After incubation for 30 min at 37°C, the reactions were terminated by the addition of 0.5 ml of 20 mM HEPES (pH 5.5) containing 2 mM EDTA and 2 mM EGTA. Samples were passed through a 1 ml column of Dowex AG50W-X8 (Na^+-form) to remove unconverted L-[^14C(U)]-arginine. L-[^14C(U)]-Citrulline was eluted twice with 1 ml of distilled water, and the eluted fractions mixed with 10 ml of cocktail (Ultima Gold XR) were quantified using a liquid scintillation counter. A reaction mixture containing L-[^14C(U)]-arginine without the enzyme was incubated as a control to determine background counts. The effects of oxidized cholesterol metabolites on the NOSs activities were examined in the presence and absence of the test compounds at various concentrations, which were prepared in 5% ethanol and a 10 µl aliquot was added into the reaction mixture.
(§3) Initial rates of citrulline formation were obtained by linear leastsquares data fitting of actual experimental data. Apparent Km and Vmax values at each inhibitor concentration were obtained from nonlinear regression fitting using the Michaelis-Menten equation. Ki and Kiʹ were obtained from the X-axis intercepts of plots of measured Km/Vmax and 1/Vmax vs inhibitor concentration, respectively.

nNOS = target: T2, nNOS (Rattus norvegicus, UniProt P29476); test: NOS activity assay, conversion of L-[14C(U)]-arginine to L-[14C(U)]-citrulline, recombinant nNOS; format: biochemical; conditions: for Effect on nNOS activity: up to the highest concentration (100 µM); for Pattern of inhibition of nNOS activity: Lineweaver-Burke plot
T2 construct: purchased Cayman Chem
Description: as §1, §2, §3

iNOS = target: T3, iNOS (Mus musculus, UniProt P29477); test: NOS activity assay, conversion of L-[14C(U)]-arginine to L-[14C(U)]-citrulline, recombinant iNOS; format: biochemical; conditions: tested 1–100 µM, highest concentration 100 µM
T3 construct: purchased Sigma Chem. (St. Louis, MO)
Description: as §1, §2

bovine serum albumin = bovine serum albumin (Bos taurus, UniProt P02769); test: Reaction with proteins to form the adduct (preliminary, unpublished data)
[1] = varying L-arginine, read-out: Ki(app) for the catalytic site

T2 sequence (P29476 whole entry): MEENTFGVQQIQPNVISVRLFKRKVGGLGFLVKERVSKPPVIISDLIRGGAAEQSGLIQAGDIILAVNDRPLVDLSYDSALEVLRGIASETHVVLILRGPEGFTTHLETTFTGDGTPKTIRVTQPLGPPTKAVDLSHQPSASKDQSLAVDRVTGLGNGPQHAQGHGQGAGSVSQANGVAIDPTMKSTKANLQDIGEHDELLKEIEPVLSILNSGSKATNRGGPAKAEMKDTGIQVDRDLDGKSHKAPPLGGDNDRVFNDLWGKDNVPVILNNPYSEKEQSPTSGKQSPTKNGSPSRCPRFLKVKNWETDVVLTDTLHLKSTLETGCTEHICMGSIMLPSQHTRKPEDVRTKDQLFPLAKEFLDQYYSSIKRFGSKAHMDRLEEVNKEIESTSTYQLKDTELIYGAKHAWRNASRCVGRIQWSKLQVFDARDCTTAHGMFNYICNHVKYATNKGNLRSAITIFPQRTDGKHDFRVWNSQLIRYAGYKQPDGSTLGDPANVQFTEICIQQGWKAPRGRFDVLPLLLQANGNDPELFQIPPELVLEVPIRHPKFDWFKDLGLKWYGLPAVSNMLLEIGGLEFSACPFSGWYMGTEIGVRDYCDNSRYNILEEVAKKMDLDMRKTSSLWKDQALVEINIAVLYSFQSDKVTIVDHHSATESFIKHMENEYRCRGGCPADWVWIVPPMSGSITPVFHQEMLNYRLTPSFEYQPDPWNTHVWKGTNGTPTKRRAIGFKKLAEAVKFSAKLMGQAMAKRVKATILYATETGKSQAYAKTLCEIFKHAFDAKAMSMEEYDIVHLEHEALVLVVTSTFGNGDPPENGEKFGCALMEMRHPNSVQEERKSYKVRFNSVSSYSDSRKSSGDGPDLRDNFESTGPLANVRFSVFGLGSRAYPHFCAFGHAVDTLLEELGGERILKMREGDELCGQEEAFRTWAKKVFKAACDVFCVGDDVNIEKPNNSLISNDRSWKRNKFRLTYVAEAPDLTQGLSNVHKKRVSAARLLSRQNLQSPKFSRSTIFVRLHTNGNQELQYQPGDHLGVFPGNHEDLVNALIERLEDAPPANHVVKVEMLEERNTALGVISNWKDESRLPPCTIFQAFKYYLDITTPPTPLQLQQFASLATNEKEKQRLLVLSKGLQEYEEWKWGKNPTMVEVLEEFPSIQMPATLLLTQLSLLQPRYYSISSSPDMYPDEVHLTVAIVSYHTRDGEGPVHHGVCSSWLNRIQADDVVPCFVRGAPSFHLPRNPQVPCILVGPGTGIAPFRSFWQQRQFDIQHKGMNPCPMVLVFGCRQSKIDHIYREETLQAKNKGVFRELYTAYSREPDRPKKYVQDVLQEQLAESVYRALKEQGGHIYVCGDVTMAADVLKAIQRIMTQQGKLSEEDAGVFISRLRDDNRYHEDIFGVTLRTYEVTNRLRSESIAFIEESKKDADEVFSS
Sequence of bovine serum albumin (P02769 25-607): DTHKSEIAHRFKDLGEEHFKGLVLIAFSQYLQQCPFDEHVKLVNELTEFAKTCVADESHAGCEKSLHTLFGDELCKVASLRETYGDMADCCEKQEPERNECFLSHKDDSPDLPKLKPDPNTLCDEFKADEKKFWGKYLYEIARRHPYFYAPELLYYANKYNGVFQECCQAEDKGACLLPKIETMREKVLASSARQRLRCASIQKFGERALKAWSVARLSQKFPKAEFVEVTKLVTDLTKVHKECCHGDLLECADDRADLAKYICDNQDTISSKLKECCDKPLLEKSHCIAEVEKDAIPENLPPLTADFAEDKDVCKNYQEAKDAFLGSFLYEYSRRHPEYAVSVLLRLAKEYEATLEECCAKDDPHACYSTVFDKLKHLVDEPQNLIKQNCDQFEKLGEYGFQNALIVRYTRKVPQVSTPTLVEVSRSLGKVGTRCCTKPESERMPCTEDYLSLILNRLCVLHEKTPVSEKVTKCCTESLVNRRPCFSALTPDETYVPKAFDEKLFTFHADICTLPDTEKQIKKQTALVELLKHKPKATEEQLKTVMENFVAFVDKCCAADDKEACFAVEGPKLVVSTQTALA

CC(C)CCC[C@@H](C)[C@H]1CC[C@H]2[C@@H]3C[C@H]4O[C@]45C[C@@H](O)CC[C@]5(C)[C@H]3CC[C@]12C [5β,6β-epoxycholesterol]
Effect on eNOS activity (eNOS): do not affect
Effect on nNOS activity (nNOS): do not affect
Effect on iNOS activity (iNOS): do not affect

CC(C)CCC[C@@H](C)[C@H]1CC[C@H]2[C@@H]3C(=O)C=C4C[C@@H](O)CC[C@]4(C)[C@H]3CC[C@]12C [7-ketocholesterol, 3β-hydroxy-5-cholesten-7-one]
Effect on eNOS activity (eNOS): do not affect
Effect on nNOS activity (nNOS): do not affect
Effect on iNOS activity (iNOS): do not affect

C[C@H](CCCC(C)(C)O)[C@H]1CC[C@H]2[C@@H]3CC=C4C[C@@H](O)CC[C@]4(C)[C@H]3CC[C@]12C [25-hydroxycholesterol]
Effect on eNOS activity (eNOS): do not affect
Effect on nNOS activity (nNOS): do not affect
Effect on iNOS activity (iNOS): do not affect

CC(C)CCC[C@@H](C)[C@H]1CC[C@H]2[C@@H]3CC=C4C[C@@H](O)CC[C@]4(C)[C@H]3CC[C@]12C [cholesterol]
Effect on eNOS activity (eNOS): do not affect
Effect on eNOS activity (eNOS; listed as Cholesterol): no inhibitory effects
Effect on nNOS activity (nNOS): do not affect
Effect on nNOS activity (nNOS; listed as Cholesterol): no inhibitory effects
Effect on iNOS activity (iNOS): do not affect
Effect on iNOS activity (iNOS; listed as Cholesterol): no inhibitory effects

CC(C)CCC[C@@H](C)[C@H]1CC[C@H]2[C@H](CC=O)[C@@H]([C@@]3(C)CC[C@H](O)CC3=O)CC[C@]12C [secosterol-A, 3β-hydroxy-5-oxo-5,6-secocholestan-6-al]
eNOS activity, % of the activity without secosterol-A (eNOS; 100 µM secosterol-A, 10 µM BH4): 41%
Restoration of inhibited eNOS activity by added BH4 (eNOS; 100 µM secosterol-A, 50 and 100 µM BH4): did not restore
Restoration of inhibited eNOS activity by excess CaM (eNOS; 100 µM secosterol-A, CaM 60–600 µM): did not restore
Vmax(app)ʹ (eNOS; L-arginine as substrate, in the presence of 50 µM secosterol-A (1400 without inhibitor)): 480 µmol·L^−1·30 min^−1
IC50 (eNOS; recombinant bovine eNOS, 50 µM L-arginine, 30 min at 37°C): 50 ± 5 µM
Ki (eNOS; [1]): 50 µM
nNOS activity, % of the activity without secosterol-A (nNOS; 40 µM secosterol-A, 10 µM BH4): 23%
nNOS activity compared to the activity without secosterol-A (nNOS; 40 µM secosterol-A, 60 µM CaM): 22%
Restoration of inhibited nNOS activity by added BH4 (nNOS; 40 µM secosterol-A, 50 and 100 µM BH4): did not restore
nNOS activity compared to the activity without secosterol-A (nNOS; 40 µM secosterol-A, excess CaM 300 µM): 63%
nNOS activity compared to the activity without secosterol-A (nNOS; 40 µM secosterol-A, excess CaM 600 µM): 86%
Vmax(app)ʹ (nNOS; L-arginine as substrate, in the presence of 40 µM secosterol-A (10000 without inhibitor)): 909 µmol·L^−1·30 min^−1
IC50 (nNOS; recombinant rat nNOS, 50 µM L-arginine, 30 min at 37°C): 22 ± 1 µM
Pattern of inhibition of nNOS activity (nNOS; varying CaM): noncompetitive or a mixed-type
Ki (nNOS; varying CaM, read-out: Kiʹ for the allosteric site (CaM-dependent nNOS activity)): 30 µM
Pattern of inhibition of nNOS activity (nNOS; varying L-arginine): noncompetitive or a mixed-type
Ki (nNOS; [1]): 10 µM
Ki (nNOS; varying L-arginine, read-out: Ki(app)ʹ for the allosteric site): 1 µM
Effect on iNOS activity (iNOS): did not affect
Reactivity with proteins to form the adduct (bovine serum albumin): more easily than secosterol-B

CC(C)CCC[C@@H](C)[C@H]1CC[C@H]2[C@@H]3[C@@H](C=O)[C@]4(O)C[C@@H](O)CC[C@]4(C)[C@H]3CC[C@]12C [secosterol-B, 3β-hydroxy-5β-hydroxy-B-norcholestane-6β-carboxaldehyde]
Effect on eNOS activity (eNOS): do not affect
Effect on nNOS activity (nNOS): do not affect
Effect on iNOS activity (iNOS): do not affect
